Data on 44 compounds can be found in patent US10919885B2, “Compounds and uses thereof” (Yumanity Therapeutics, Inc., priority 2018, dated 2021).

Where only a bound is given, the exact number is not on record here.

One assay has as its target human SCD1 (Homo sapiens (Human), UniProt O00767). Description: Yeast growth assay, strain expressing human SCD1 as the sole desaturase (reduced growth as surrogate for SCD inhibition). It is filed as cell-based. The following applies: yeast with OLE1 deleted expressing human SCD1 from a plasmid; growth read as OD600 after 40 h at 30° C.; top drug concentration 33.3 μM. A digest of the protocol: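 Yeast lacking OLE1 depend on plasmid-borne human SCD1 or SCD5 and are tested in SD-Ura medium without oleic/palmitoleic acid or Tween.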

For a further assay, the target named is human SCD5 (Homo sapiens (Human), UniProt Q86SK9). As to the kind of experiment: Yeast growth assay, strain expressing human SCD5 as the sole desaturase (reduced growth as surrogate for SCD inhibition). It is filed as cell-based. The following applies: yeast with OLE1 deleted expressing human SCD5 from a plasmid; growth read as OD600 after 40 h at 30° C.; top drug concentration 33.3 μM. The procedure:
Strains expressing SCD1 or SCD5 as the sole desaturase, the human SCD1 and SCD5 genes were used to evaluate inhibition of SCD1/SCD5 using reduced growth as a surrogate for SCD inhibition. These yeast strains express human SCD1 or SCD5 from a plasmid harbored in a strain in which the yeast OLE1 gene is deleted.
All compound profiling experiments were performed using the same basic protocol. Yeast were cultured using standard techniques in complete synthetic media lacking uracil and containing yeast nitrogen base supplemented with 2% (w/v) glucose (SD-Ura) Starter cultures were inoculated in 3 mL SD-Ura media containing 0.01% tween and 0.2 mM palmitoleic and oleic acid. Cultures were incubated overnight in a 30° C. shaker incubator (225 rpm). Saturated morning cultures were centrifuged, washed in SD-Ura media lacking TWEEN-20 and fatty acids, and then diluted 1:20 in fresh SD-Ura media also lacking TWEEN-20 and fatty acids.
Compound administration was performed in two separate steps. First, 15 μL of SD-Ura was dispensed into clear 384-well assay plates using a MULTIDROP™ Combi reagent dispenser. […] The cultures described above were centrifuged and washed with media lacking TWEEN-20 or oleic and palmitoleic acids.
After yeast delivery, assay plates were incubated under humidified conditions at 30° C. for 40 h. Yeast growth was monitored by reading the OD600 of each well using a microplate reader (Perkin Elmer EnVision™).

Sequence of human SCD1 (O00767 whole entry): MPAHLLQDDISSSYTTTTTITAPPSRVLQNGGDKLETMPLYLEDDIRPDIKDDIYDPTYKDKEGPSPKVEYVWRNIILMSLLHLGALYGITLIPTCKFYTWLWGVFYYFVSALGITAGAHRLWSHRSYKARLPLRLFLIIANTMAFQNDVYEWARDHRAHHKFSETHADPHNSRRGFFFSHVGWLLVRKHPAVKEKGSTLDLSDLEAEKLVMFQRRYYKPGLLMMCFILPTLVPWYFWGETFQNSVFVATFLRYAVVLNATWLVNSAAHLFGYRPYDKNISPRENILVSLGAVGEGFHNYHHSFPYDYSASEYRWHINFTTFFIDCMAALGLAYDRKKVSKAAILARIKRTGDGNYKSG
Sequence of human SCD5 (Q86SK9 whole entry): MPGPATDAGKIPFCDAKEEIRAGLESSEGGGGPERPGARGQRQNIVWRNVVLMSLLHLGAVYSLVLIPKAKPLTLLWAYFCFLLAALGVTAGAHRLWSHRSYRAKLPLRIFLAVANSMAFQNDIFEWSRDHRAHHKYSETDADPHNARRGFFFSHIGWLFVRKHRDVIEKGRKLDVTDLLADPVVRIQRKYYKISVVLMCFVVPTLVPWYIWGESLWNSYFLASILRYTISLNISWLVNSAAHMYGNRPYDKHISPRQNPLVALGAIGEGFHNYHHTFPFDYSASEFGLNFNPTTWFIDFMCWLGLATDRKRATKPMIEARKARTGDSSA

For the compound `O=C(c1cc(-c2ccncn2)on1)N1CC(Cc2ccccc2)C1` [Compound 258, (3-benzylazetidin-1-yl)(5-(pyrimidin-4-yl)isoxazol-3-yl)methanone], the IC50 (in general, the concentration needed to halve the response being measured) at human SCD1 was 2.5 µM; at human SCD5, 1 µM.
For `CCOc1ccc(-c2cc(C(=O)N3CCC[C@H]3c3ccccc3)no2)cc1F` [Compound 443], in that order: above 45 µM and above 45 µM.
With `O=C(Nc1cnn(Cc2ccccn2)c1)c1cc(-c2ccccc2)on1` [Compound 40], the IC50 at human SCD1 and against human SCD5 was above 45 µM each time.
Turning to `O=C(Nc1cnn(Cc2ccccc2)c1)c1cc(-c2ccc(F)cc2F)on1` [Compound 157], the IC50 against human SCD1 and at human SCD5 was above 45 µM throughout.
Regarding `O=C(c1cc(-c2ccc3c(c2)OCO3)on1)N1CCC1c1cccc(F)c1` (stereo not shown) [Compound 220, [5-(1,3-benzodioxol-5-yl)isoxazol-3-yl]-[2-(3-fluorophenyl)azetidin-1-yl]methanone], the IC50 on human SCD1 was above 45 µM; against human SCD5 it was 2.92 µM.
For `COc1ccc(C2CCCN2C(=O)c2cc(-c3ccc4c(c3)OCO4)on2)nc1` (stereo not shown) [Compound 145], in that order: above 45 µM and above 45 µM.
On the same counts, the results for `Cc1ccncc1Cn1cc(NC(=O)c2cc(-c3ccccc3F)on2)cn1` [Compound 172] are above 45 µM and above 45 µM.
Turning to `O=C(Nc1cnn(Cc2ccccc2)c1)c1cc(-c2ccccn2)no1` [Compound 129], the IC50 against human SCD1 and at human SCD5 was above 45 µM in each case.
Consider `O=C(c1cnn(Cc2ccncc2)c1)c1cc(-c2ccccc2)on1` [Compound 138], for which the IC50 against human SCD1 and on human SCD5 was above 45 µM throughout.
As for `Cc1nn(C)c2cc(-c3conc3CN3C(=O)OCC3c3ccccc3)ccc12` (stereo not shown) [Compound 464], the IC50 at human SCD1 and against human SCD5 was above 45 µM in each case.
Regarding `O=C(Nc1cnn(Cc2ccccc2)c1)c1cc(-c2ccncc2F)on1` [Compound 147, N-(1-benzyl-1H-pyrazol-4-yl)-5-(3-fluoropyridin-4-yl)isoxazole-3-carboxamide], the concentration for half-maximal inhibition (IC50) was above 45 µM on human SCD1 and 7.4 µM against human SCD5.
For `O=C(c1cc(-c2ccc3c(c2)OCO3)on1)N1CC(c2cccc(F)c2)C1` [Compound 239, (5-(benzo[d][1,3]dioxol-5-yl)isoxazol-3-yl)(3-(3-fluorophenyl)azetidin-1-yl)methanone], in that order: 0.866 µM and 1.92 µM.
On the same counts, the results for `NC(=O)c1cc(C(=O)Nc2cnn(Cc3cccc(F)c3)c2)no1` [Compound 162] are above 45 µM and above 45 µM.
For `CNC(=O)c1ccc(-c2cc(C(=O)N3CC=C(c4ccccc4)CC3)no2)cc1` [Compound 319], in that order: above 45 µM and above 45 µM.
Turning to `O=C(c1cc(-c2ccc(=O)[nH]c2)on1)N1CCC[C@H]1c1ccccc1` [Compound 451], the IC50 against human SCD1 was 37.2 µM; against human SCD5, above 45 µM.
On the same counts, the results for `Cc1nn(C)c2cc(-c3cc(CN4C(=O)OCC4c4ccccc4)no3)ccc12` (stereo not shown) [Compound 273] are above 45 µM and 39.2 µM.
For `O=C(Nc1cnn(Cc2ccc(F)cc2)c1)c1cc(-c2ccccc2)on1` [Compound 112], in that order: above 45 µM and above 45 µM.
For `Cc1nn(Cc2ccccc2)c(C)c1NC(=O)c1cc(-c2ccco2)on1` [Compound 2], in that order: 32.8 µM and 38.6 µM.
As for `O=C(c1cc(-c2ccco2)on1)N1CC(Oc2ccccc2)C1` [Compound 206, [5-(2-furyl)isoxazol-3-yl]-(3-phenoxyazetidin-1-yl)methanone], the IC50 turned out to be 0.28 µM on human SCD1 and 1.4 µM against human SCD5.
For `O=C(c1cc(-c2ccc3c(c2)OCO3)on1)N1CCC(Oc2ccccc2)CC1` [Compound 298, [5-(1,3-benzodioxol-5-yl)isoxazol-3-yl]-(4-phenoxy-1-piperidyl)methanone], in that order: 6.22 µM and 2.92 µM.
On the same counts, the results for `Cc1cc(C2CCCN2C(=O)c2cc(-c3ccc4c(c3)OCO4)on2)on1` (stereo not shown) [Compound 353] are above 45 µM and above 45 µM.
Turning to `N#Cc1cccc(Cn2cc(NC(=O)c3cc(-c4ccccc4)on3)cn2)c1` [Compound 132], the IC50 against human SCD1 and against human SCD5 was above 45 µM throughout.
In the case of `CN(C)CC(c1ccccc1)n1cc(NC(=O)c2cc(-c3ccccc3)on2)cn1` (stereo not shown) [Compound 113], the IC50 against human SCD1 and at human SCD5 was above 45 µM throughout.
As to `CC(C)(O)c1cc(C(=O)Nc2cnn(Cc3ccccc3)c2)on1` [Compound 152], the IC50 on human SCD1 and on human SCD5 was above 45 µM in each case.
Take `O=C(Nc1cnn(Cc2cnccc2C(F)(F)F)c1)c1cc(-c2ccncc2)on1` [Compound 202]: the IC50 against human SCD1 and on human SCD5 was above 45 µM each time.
`O=C(Nc1cn(Cc2ccccc2)nn1)c1cc(-c2ccccc2)on1` [Compound 44]: the IC50 against human SCD1 and on human SCD5 was above 45 µM each time.
Consider `COc1cccc(N2CCN(C(=O)c3cc(-c4ccc5c(c4)OCO5)on3)CC2)c1` [Compound 271, (5-(benzo[d][1,3]dioxol-5-yl)isoxazol-3-yl)(4-(3-methoxyphenyl)piperazin-1-yl)methanone], for which the values for the IC50 against human SCD1 and on human SCD5 were above 45 µM and 4.71 µM, respectively.
For `Cc1nnc(-c2cc(C(=O)Nc3cnn(Cc4cccc(F)c4)c3)no2)s1` [Compound 175], in that order: above 45 µM and above 45 µM.
For `CCc1cc(C(=O)Nc2cnn(Cc3cccc(F)c3)c2)no1` [Compound 104, 5-ethyl-N-(1-(3-fluorobenzyl)-1H-pyrazol-4-yl)isoxazole-3-carboxamide], in that order: 0.066 µM and 1 µM.
In the case of `COc1ccc(C2CCCN2C(=O)c2cc(-c3ccc(OC)c(OC)c3)on2)cc1` (stereo not shown) [Compound 374], the values for the IC50 at human SCD1 and at human SCD5 were 32.2 µM and above 45 µM, respectively.
Turning to `O=C(c1cc(-c2ccc3c(c2)OCO3)on1)N1CCC1c1ccc(F)cc1` (stereo not shown) [Compound 223, [5-(1,3-benzodioxol-5-yl)isoxazol-3-yl]-[2-(4-fluorophenyl)azetidin-1-yl]methanone], the concentration for half-maximal inhibition (IC50) was above 45 µM on human SCD1 and 3.26 µM at human SCD5.
On the same counts, the results for `O=C(c1cc(-c2ccc3c(c2)OCO3)on1)N1CCCC1c1ccccc1C(F)F` (stereo not shown) [Compound 331] are above 45 µM and 6.18 µM.
For `O=C(Nc1cnn(Cc2cccc(F)c2)c1)c1cc(-c2nncs2)on1` [Compound 174], in that order: 8.2 µM and above 45 µM.
On the same counts, the results for `CCOC(=O)c1cc(-c2cc(C(=O)Nc3cnn(Cc4cccc(F)c4)c3)no2)on1` [Compound 155] are above 45 µM and above 45 µM.
In the case of `O=C(Nc1ccccc1)C1CN(C(=O)c2cc(-c3ccccc3)on2)C1` [Compound 237], the IC50 against human SCD1 and against human SCD5 was above 45 µM each time.
For the compound `CC(C)(c1ccccc1)n1cc(NC(=O)c2cc(-c3ccccc3)on2)cn1` [Compound 64], the IC50 against human SCD1 and on human SCD5 was above 45 µM in each case.
For the compound `O=C(c1cc(-c2ccc3c(c2)OCO3)on1)N1CCCC12CC2` [Compound 371], the IC50 at human SCD1 was found to be 30.4 µM; on human SCD5 it was 4.92 µM.
Regarding `O=C(Nc1cnn(Cc2cccc(F)c2)c1)c1cc(-c2ccns2)on1` [Compound 81, N-(1-(3-fluorobenzyl)-1H-pyrazol-4-yl)-5-(isothiazol-5-yl)isoxazole-3-carboxamide], the half-maximal inhibitory concentration (IC50) against human SCD1 came to 0.232 µM; at human SCD5, 1.6 µM.
On the same counts, the results for `O=C(Nc1cnn(CCCC(F)(F)F)c1)c1cc(-c2ccco2)on1` [Compound 34, 5-(2-furyl)-N-[1-(4,4,4-trifluorobutyl)pyrazol-4-yl]isoxazole-3-carboxamide] are above 45 µM and 6.42 µM.
On the same counts, the results for `O=C(Nc1cnn(Cc2ccccc2)c1)c1cc(-c2ccncc2)on1` [Compound 124, N-(1-benzyl-1H-pyrazol-4-yl)-5-(pyridin-4-yl)isoxazole-3-carboxamide] are 5.7 µM and 7 µM.
On the same counts, the results for `O=C(c1cc(-c2ccc3c(c2)OCO3)on1)N1CCCc2c(F)cccc21` [Compound 263] are above 45 µM and above 45 µM.
Regarding `O=C(c1cc(-c2ccco2)on1)N1CCC(c2ccccc2)C1` (stereo not shown) [Compound 338], the IC50 against human SCD1 is above 45 µM; against human SCD5 it was 2.79 µM.
Turning to `O=C(c1cc(-c2ccncc2)on1)N1CCC(c2ccccc2)CC1` [Compound 313, (4-phenylpiperidin-1-yl)(5-(pyridin-4-yl)isoxazol-3-yl)methanone, trifluoroacetic acid], the IC50 on human SCD1 is 0.41 µM; at human SCD5 it was 1.54 µM.
As for `CC1(C(=O)Nc2ccccc2)CN(C(=O)c2cc(-c3ccccc3)on2)C1` [Compound 238], the IC50 at human SCD1 and against human SCD5 was above 45 µM throughout.
